Molecular target: T1, Universal stress protein (USP, Rv1636) (Mycobacterium tuberculosis, UniProt P9WFC9)
T1 construct: His-tagged Rv1636
Assay: biochemical
Type: binding

T1 sequence (P9WFC9 whole entry): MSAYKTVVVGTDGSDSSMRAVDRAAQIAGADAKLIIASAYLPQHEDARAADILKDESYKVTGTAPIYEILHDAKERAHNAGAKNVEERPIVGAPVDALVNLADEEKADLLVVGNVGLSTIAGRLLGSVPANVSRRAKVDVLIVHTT

Structure (SMILES)	Kd [µM]
COc1cc(/C=C/C(=O)CC(=O)/C=C/c2ccc(O)c(OC)c2)ccc1O [Curcumin]	17.4 ± 0.8
COc1cc2c(cc1OC)-c1cc(NCCCCN)nc(=O)n1CC2 [compound 19, 2-((4-aminobutyl)amino)-9,10-dimethoxy-6,7-dihydro-4H-pyrimido[6,1-a]isoquinolin-4-one]	998 ± 82
NC(=O)NCCC[C@@H](NC(=O)CCn1ccc2c(Cl)cccc21)C(=O)O [compound 20, (R)-2-(3-(4-chloro-1H-indol-1-yl)propanamido)-5-ureidopentanoic acid]	1720 ± 731

From PMC8126637 (Frontiers in Molecular Biosciences, 2021)
